Results published in US20210254056A1, “IDENTIFICATION AND TARGETED MODULATION OF GENE SIGNALING NETWORKS” (CAMP4 THERAPEUTICS CORPORATION, priority 2017, published 2021).
Like-named read-outs stand apart in the source and are kept apart here.

Assays:
[1] = system: primary human hepatocytes
[2] = system: primary human hepatocytes; assay: RNA-seq of primary human hepatocytes treated with 39 small molecules (pilot and validation); details: for Number (#) of genes having significantly changed expression: pilot RNA-seq study of Example 2, significance: FPKM≥0.5, log 2(fold change)≥1, q-value ≤0.05
[3] = RNA-seq, p-value≤0.05, primary human hepatocytes, the modulated genes are listed in the block

CN(C)CCC=C1c2ccccc2COc2ccccc21 [MT-723, Adapin (doxepin)]
Log2 fold changes in gene expression: CYP2C19 [1]: 0.18 | Log2 fold changes in gene expression: CYP3A4 [1]: 0.14 | Log2 fold changes in gene expression: ACADVL [2]: 0 | Log2 fold changes in gene expression: ACAT2 [2]: −0.03 | Log2 fold changes in gene expression: ACSL1 [2]: 0.04 | Log2 fold changes in gene expression: ACSL5 [2]: 0.03 | Log2 fold changes in gene expression: AGPAT2 [2]: −0.05 | Log2 fold changes in gene expression: AGTR1 [2]: 0.03 | Log2 fold changes in gene expression: AHSG [2]: −0.07 | Log2 fold changes in gene expression: ALAS1 [2]: −0.01 | Log2 fold changes in gene expression: AMACR [2]: −0.11 | Log2 fold changes in gene expression: ARG1 [2]: 0.07 | Log2 fold changes in gene expression: CA2 [2]: −0.08 | Log2 fold changes in gene expression: CA12 [2]: 0.29 | Log2 fold changes in gene expression: CIDEC [2]: 0.09 | Log2 fold changes in gene expression: COL1A1 [2]: −0.14 | Log2 fold changes in gene expression: CPS1 [2]: −0.04 | Log2 fold changes in gene expression: CPT1A [2]: 0.06 | Log2 fold changes in gene expression: CPT2 [2]: −0.09 | Log2 fold changes in gene expression: CYP21A2 [2]: 0.08 | Log2 fold changes in gene expression: ECH1 [2]: −0.04 | Log2 fold changes in gene expression: ENO3 [2]: −0.21 | Log2 fold changes in gene expression: ETFDH [2]: 0.05 | Log2 fold changes in gene expression: FABP1 [2]: −0.08 | Log2 fold changes in gene expression: G6PC [2]: 0.03 | Log2 fold changes in gene expression: GHR [2]: −0.05 | Log2 fold changes in gene expression: GLA [2]: 0.01 | Log2 fold changes in gene expression: HGD [2]: 0 | Log2 fold changes in gene expression: HMGCR [2]: 0.02 | Log2 fold changes in gene expression: HMGCS2 [2]: −0.04 | Log2 fold changes in gene expression: HMOX1 [2]: 0.22 | Log2 fold changes in gene expression: HOGA1 [2]: 0.03 | Log2 fold changes in gene expression: HPGD [2]: 0.05 | Log2 fold changes in gene expression: IFT27 [2]: 0 | Log2 fold changes in gene expression: LDHA [2]: −0.09 | Log2 fold changes in gene expression: LPIN2 [2]: 0.03 | Log2 fold changes in gene expression: MOGAT2 [2]: 0.01 | Log2 fold changes in gene expression: NCF2 [2]: −0.21 | Log2 fold changes in gene expression: PCSK9 [2]: 0.11 | Log2 fold changes in gene expression: POR [2]: 0.1 | Log2 fold changes in gene expression: RMRP [2]: −0.14 | Log2 fold changes in gene expression: SLC2A2 [2]: −0.04 | Log2 fold changes in gene expression: SLC6A6 [2]: 0.17 | Log2 fold changes in gene expression: SLC25A20 [2]: −0.1 | Log2 fold changes in gene expression: SLC37A4 [2]: −0.17 | Log2 fold changes in gene expression: SLC51B [2]: −0.26 | Log2 fold changes in gene expression: SULT2A1 [2]: 0.03 | Log2 fold changes in gene expression: TAT [2]: −0.1 | Log2 fold changes in gene expression: TDO2 [2]: −0.14 | Log2 fold changes in gene expression: TMEM135 [2]: 0.05 | Log2 fold changes in gene expression: TNFSF11 [2]: −0.11 | Log2 fold changes in gene expression: VLDLR [2]: 0.01 | significant modulation of gene expression [2]: significantly (p-value≤0.05) modulate

CCN1CCCC1CNC(=O)c1cc(S(N)(=O)=O)ccc1OC (centres unmarked) [MT-277, Sulpiride]
Log2 fold changes in gene expression: CYP2C19 [1]: 0.04 | Log2 fold changes in gene expression: CYP3A4 [1]: 0 | significant modulation of gene expression [2, 3]: significantly (p-value≤0.05) modulate | Number (#) of genes having significantly changed expression [2]: 8

C#C[C@]1(O)CC[C@H]2[C@@H]3CCC4=Cc5oncc5C[C@]4(C)[C@H]3CC[C@@]21C [MT-487, Danazol]
Log2 fold changes in gene expression: CYP2C19 [1]: −0.03 | Log2 fold changes in gene expression: CYP3A4 [1]: 0.11 | significant modulation of gene expression [2, 3]: significantly (p-value≤0.05) modulate | Number (#) of genes having significantly changed expression [2]: 5

CCc1nn(CCCN2CCN(c3cccc(Cl)c3)CC2)c(=O)n1CCOc1ccccc1 [MT-505, Nefazodone]
Log2 fold changes in gene expression: CYP2C19 [1]: −0.03 | Log2 fold changes in gene expression: CYP3A4 [1]: 0.4 | significant modulation of gene expression [2, 3]: significantly (p-value≤0.05) modulate | Number (#) of genes having significantly changed expression [2]: 18

CCc1oc2ccccc2c1C(=O)c1cc(Br)c(O)c(Br)c1 [MT-220, Benzbromarone]
Log2 fold changes in gene expression: CYP2C19 [1]: 0.57 | Log2 fold changes in gene expression: CYP3A4 [1]: 0.87 | cytotoxicity in hepatocytes [1]: cytotoxic | significant modulation of gene expression [2, 3]: significantly (p-value≤0.05) modulate | Number (#) of genes having significantly changed expression [2]: 119

C[C@H](CS)C(=O)N1CCC[C@H]1C(=O)O [MT-835, Captopril]
Log2 fold changes in gene expression: CYP2C19 [1]: 0.07 | Log2 fold changes in gene expression: CYP3A4 [1]: 0.02 | significant modulation of gene expression [2, 3]: significantly (p-value≤0.05) modulate | Number (#) of genes having significantly changed expression [2]: 12

CC(C)(S)[C@@H](N)C(=O)O [MT-741, Penicillamine(D-)]
Log2 fold changes in gene expression: CYP2C19 [1]: 0.04 | Log2 fold changes in gene expression: CYP3A4 [1]: −0.08 | Log2 fold changes in gene expression: ACADVL ([2]; RNA-seq validation, duplicates, gene ACADVL): −0.04 | Log2 fold changes in gene expression: ACAT2 ([2]; RNA-seq validation, duplicates, gene ACAT2): −0.05 | Log2 fold changes in gene expression: ACSL1 ([2]; RNA-seq validation, duplicates, gene ACSL1): 0 | Log2 fold changes in gene expression: ACSL5 ([2]; RNA-seq validation, duplicates, gene ACSL5): −0.05 | Log2 fold changes in gene expression: AGPAT2 ([2]; RNA-seq validation, duplicates, gene AGPAT2): −0.11 | Log2 fold changes in gene expression: AGTR1 ([2]; RNA-seq validation, duplicates, gene AGTR1): −0.04 | Log2 fold changes in gene expression: AHSG ([2]; RNA-seq validation, duplicates, gene AHSG): 0.03 | Log2 fold changes in gene expression: ALAS1 ([2]; RNA-seq validation, duplicates, gene ALAS1): −0.11 | Log2 fold changes in gene expression: AMACR ([2]; RNA-seq validation, duplicates, gene AMACR): −0.24 | Log2 fold changes in gene expression: ARG1 ([2]; RNA-seq validation, duplicates, gene ARG1): 0.01 | Log2 fold changes in gene expression: CA2 ([2]; RNA-seq validation, duplicates, gene CA2): −0.18 | Log2 fold changes in gene expression: CA12 ([2]; RNA-seq validation, duplicates, gene CA12): −0.02 | Log2 fold changes in gene expression: CIDEC ([2]; RNA-seq validation, duplicates, gene CIDEC): −0.24 | Log2 fold changes in gene expression: COL1A1 ([2]; RNA-seq validation, duplicates, gene COL1A1): 0.14 | Log2 fold changes in gene expression: CPS1 ([2]; RNA-seq validation, duplicates, gene CPS1): −0.12 | Log2 fold changes in gene expression: CPT1A ([2]; RNA-seq validation, duplicates, gene CPT1A): 0.04 | Log2 fold changes in gene expression: CPT2 ([2]; RNA-seq validation, duplicates, gene CPT2): −0.22 | Log2 fold changes in gene expression: CYP21A2 ([2]; RNA-seq validation, duplicates, gene CYP21A2): 0.04 | Log2 fold changes in gene expression: ECH1 ([2]; RNA-seq validation, duplicates, gene ECH1): −0.14 | Log2 fold changes in gene expression: ENO3 ([2]; RNA-seq validation, duplicates, gene ENO3): −0.17 | Log2 fold changes in gene expression: ETFDH ([2]; RNA-seq validation, duplicates, gene ETFDH): −0.12 | Log2 fold changes in gene expression: FABP1 ([2]; RNA-seq validation, duplicates, gene FABP1): −0.22 | Log2 fold changes in gene expression: G6PC ([2]; RNA-seq validation, duplicates, gene G6PC): 0.14 | Log2 fold changes in gene expression: GHR ([2]; RNA-seq validation, duplicates, gene GHR): −0.13 | Log2 fold changes in gene expression: GLA ([2]; RNA-seq validation, duplicates, gene GLA): −0.06 | Log2 fold changes in gene expression: HGD ([2]; RNA-seq validation, duplicates, gene HGD): −0.16 | Log2 fold changes in gene expression: HMGCR ([2]; RNA-seq validation, duplicates, gene HMGCR): 0.05 | Log2 fold changes in gene expression: HMGCS2 ([2]; RNA-seq validation, duplicates, gene HMGCS2): −0.03 | Log2 fold changes in gene expression: HMOX1 ([2]; RNA-seq validation, duplicates, gene HMOX1): 0.05 | Log2 fold changes in gene expression: HOGA1 ([2]; RNA-seq validation, duplicates, gene HOGA1): 0 | Log2 fold changes in gene expression: HPGD ([2]; RNA-seq validation, duplicates, gene HPGD): −0.06 | Log2 fold changes in gene expression: IFT27 ([2]; RNA-seq validation, duplicates, gene IFT27): −0.01 | Log2 fold changes in gene expression: LDHA ([2]; RNA-seq validation, duplicates, gene LDHA): 0.08 | Log2 fold changes in gene expression: LPIN2 ([2]; RNA-seq validation, duplicates, gene LPIN2): 0.17 | Log2 fold changes in gene expression: MOGAT2 ([2]; RNA-seq validation, duplicates, gene MOGAT2): 0.13 | Log2 fold changes in gene expression: NCF2 ([2]; RNA-seq validation, duplicates, gene NCF2): −0.19 | Log2 fold changes in gene expression: PCSK9 ([2]; RNA-seq validation, duplicates, gene PCSK9): 0.17 | Log2 fold changes in gene expression: POR ([2]; RNA-seq validation, duplicates, gene POR): −0.14 | Log2 fold changes in gene expression: RMRP ([2]; RNA-seq validation, duplicates, gene RMRP): −1.45 | Log2 fold changes in gene expression: SLC2A2 ([2]; RNA-seq validation, duplicates, gene SLC2A2): −0.22 | Log2 fold changes in gene expression: SLC6A6 ([2]; RNA-seq validation, duplicates, gene SLC6A6): −0.35 | Log2 fold changes in gene expression: SLC25A20 ([2]; RNA-seq validation, duplicates, gene SLC25A20): −0.31 | Log2 fold changes in gene expression: SLC37A4 ([2]; RNA-seq validation, duplicates, gene SLC37A4): 0.09 | Log2 fold changes in gene expression: SLC51B ([2]; RNA-seq validation, duplicates, gene SLC51B): −0.08 | Log2 fold changes in gene expression: SULT2A1 ([2]; RNA-seq validation, duplicates, gene SULT2A1): −0.18 | Log2 fold changes in gene expression: TAT ([2]; RNA-seq validation, duplicates, gene TAT): 0.09 | Log2 fold changes in gene expression: TDO2 ([2]; RNA-seq validation, duplicates, gene TDO2): −0.14 | Log2 fold changes in gene expression: TMEM135 ([2]; RNA-seq validation, duplicates, gene TMEM135): −0.16 | Log2 fold changes in gene expression: TNFSF11 ([2]; RNA-seq validation, duplicates, gene TNFSF11): 0.04 | Log2 fold changes in gene expression: VLDLR ([2]; RNA-seq validation, duplicates, gene VLDLR): 0.09 | significant modulation of gene expression [2, 3]: significantly (p-value≤0.05) modulate | Number (#) of genes having significantly changed expression [2]: 9
